A short description of data set [1]: Assay (V) PK - determination of T½ in mini-pig. The data set is classed as in vivo. The settings on record: minipig, sc; terminal plasma half-life, subcutaneous, approx 2 nmol/kg, male Göttingen mini-pigs. Here is the method:
Assay (V) PK—Determination OF T½ in Mini-Pig
T½ is the terminal half-life=ln 2/λz of a compound in plasma. λz is the first order rate constant associated with the terminal (log-linear) portion of the plasma concentration-time curve and is estimated by linear regression of time vs. log concentration.
T½ values of the amylin analogues of the invention is determined by pharmacokinetic studies in male Göttingen mini-pigs from Ellegaard Göttingen Minipigs ApS and the principles of laboratory animal care are followed.
An acclimatization period of approximately 6-10 days was allowed before the animals entered the study. At start of the acclimatization period the mini-pigs were about 5 to 12 months old and in the weight range of 7-35 kg. The mini-pigs had two central venous catheters inserted which were used for blood sampling.
The studies were conducted in an animal room which was illuminated to give a cycle of approx 12 hours light and 12 hours darkness. The animals were housed individually.
The animals had free access to domestic quality drinking water during the study, but were typically fasted from overnight before dosing until approx 6-12 hours after dosing. The animals were weighed on arrival and on the days of dosing.
In the present studies the test substances were administered subcutaneously in approx 2 nmol/kg dose. The animals received a single subcutaneous injection. The subcutaneous injection was given on the right side of the neck, approximately 5-7 cm from the ear and 7-9 cm from the middle of the neck. The injections were given with a stopper on the needle, allowing approx 0.5 cm of the needle to be introduced. Each test substance was given to typically three but in some cases two or four animals.
A full plasma concentration-time profile, employing 12-16 sampling points, was obtained from each animal. In example blood samples were collected according to the following schedule:
After subcutaneous administration:
Predose (0), 0.5, 1, 2, 4, 6, 8, 12, 24, 48, 72, 96, 120, 168 and 240 hours after injection. In some cases also additional blood samples up to 288 hours post injection were taken.
At each sampling time, 0.5 to 2 ml of blood was drawn from each animal. The blood samples were taken via the central venous catheter.
The blood samples were collected into EDTA test tubes (i.e. Sarstedt Micro tube 1.3 mL K3E). Blood samples were kept on ice for max 20 min. before centrifugation. Plasma was separated using centrifugation (i.e. at 4° C., 10 min., 1500 G) and was immediately transferred to Micronic tubes. Approximately 200 μl plasma was transferred to each Micronic tube. The plasma was stored at −20° C. until assayed. The plasma samples were assayed for the content of amylin using an ELISA assay.
The plasma concentration-time profiles were analysed by a non-compartmental pharmacokinetic analysis (NCA) using WinNonlin Professional 5.0 (Pharsight Inc., Mountain View, Calif., USA). NCA was performed using the individual plasma concentration-time profiles from each animal. T½ is the terminal half-life=ln 2/λz and was determined from λz, the first order rate constant associated with the terminal (log-linear) portion of the curve, estimated by linear regression of time vs. log concentration.
ELISA Plasma Assay for Amylin Quantification
The human amylin ELISA is a monoclonal antibody-based sandwich immunoassay for determining amylin levels in human plasma. The capture antibody recognizes human amylin, amylin acid (deamidated amylin), a 1-20 fragment of amylin, but not reduced amylin.
The detection antibody binds to reduced or unreduced human amylin but not amylin acid and is complexed with streptavidin-alkaline phosphatase. The substrate, 4-methylumbelliferyl phosphate, is applied to the completed sandwich and the fluorescent signal, monitored at 355 nm/460 nm, is proportional to the amount of amylin present in the sample.

The target of data set [2] is T1, Amylin 3(a) receptor (human calcitonin receptor (CTa) and RAMP-3) (Homo sapiens, UniProt O60896+P30988).
T1 construct: expressed in transfected cells; host or cells: BHK570 cells, stably transfected with a CRE-luciferase reporter
T1 sequence (O60896 24-148): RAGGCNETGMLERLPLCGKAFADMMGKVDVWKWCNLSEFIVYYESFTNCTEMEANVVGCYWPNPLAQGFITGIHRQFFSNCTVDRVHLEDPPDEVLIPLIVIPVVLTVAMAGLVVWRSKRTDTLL
T1 sequence (P30988 25-474): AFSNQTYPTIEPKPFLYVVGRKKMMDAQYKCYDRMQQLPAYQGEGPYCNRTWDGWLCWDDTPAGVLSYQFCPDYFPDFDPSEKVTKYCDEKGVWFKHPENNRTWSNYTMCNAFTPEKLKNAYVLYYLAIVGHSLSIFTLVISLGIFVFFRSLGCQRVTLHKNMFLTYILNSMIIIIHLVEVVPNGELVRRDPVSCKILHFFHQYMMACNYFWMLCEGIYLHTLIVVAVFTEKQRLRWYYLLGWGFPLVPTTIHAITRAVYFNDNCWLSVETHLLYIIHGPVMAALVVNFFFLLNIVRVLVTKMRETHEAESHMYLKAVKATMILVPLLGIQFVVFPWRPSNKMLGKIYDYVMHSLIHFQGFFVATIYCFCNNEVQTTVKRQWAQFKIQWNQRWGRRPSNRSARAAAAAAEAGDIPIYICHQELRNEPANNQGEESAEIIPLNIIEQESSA
The data set can be described thus: Luciferase assay (III), BHK Amylin 3(a)//CRE-luc cells. Format: cell-based. Conditions: BHK cells with Amylin 3(a) receptor and CRE luciferase reporter, 4 hours incubation; read-out: Potency Luciferase. In outline:
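BHK570 cells stably expressing CTa, RAMP-3 and a CRE-luciferase reporter, seeded at about 20,000 cells/well and grown overnight. Cells were exposed to standard or sample for 4 h at 37° C in phenol red-free DMEM with 10% FBS and 10 mM Hepes, pH 7,4. Luminescence was read after 30 min LucLite at room temperature.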
In general terms: A reporter such as luciferase makes a cellular process visible.

Molecules are shown by their SMILES. *1 amine or outer side, *2 acyl side, *3 side chain or, on linkers, in order; H or OH if unused. Where a SMILES comes first, the peptide text is derived from it. Bridges are numbered along the chain shown (N, C = ends). The star is where a group is joined. C20 diacid = O=C(O)CCCCCCCCCCCCCCCCCCC(=O)*; γGlu = O=C(O)[C@H](CCC(=O)[*:2])N[*:1]; AEEA = NCCOCCOCC(=O)O

As a reminder, the half-life is how long it takes for the measured level to halve. Higher therefore signals slow decline. As to `CC[C@H](C)[C@H](NC(=O)[C@@H]1CCCN1C(=O)CNC(=O)[C@H](Cc1ccccc1)NC(=O)[C@H](CC(N)=O)NC(=O)[C@H](CC(N)=O)NC(=O)[C@H](CO)NC(=O)[C@H](CO)NC(=O)[C@H](Cc1c[nH]cn1)NC(=O)[C@H](CCCNC(=N)N)NC(=O)[C@H](CC(C)C)NC(=O)[C@H](Cc1ccccc1)NC(=O)[C@H](CC(N)=O)NC(=O)[C@H](C)NC(=O)[C@H](CC(C)C)NC(=O)[C@H](CCCNC(=N)N)NC(=O)[C@H](CCC(N)=O)NC(=O)[C@@H](NC(=O)[C@H](C)NC(=O)[C@@H]1CSSC[C@H](NC(=O)[C@H](CCCCN)NC(=O)[C@H](CCCNC(=N)N)NC(=O)COCCOCCNC(=O)CC[C@H](NC(=O)CCCCCCCCCCCCCCCCCCC(=O)O)C(=O)O)C(=O)N[C@@H](CC(N)=O)C(=O)N[C@@H]([C@@H](C)O)C(=O)N[C@@H](C)C(=O)N[C@@H]([C@@H](C)O)C(=O)N1)[C@@H](C)O)C(=O)N[C@@H](CC(C)C)C(=O)N1CCC[C@H]1C(=O)N1CCC[C@H]1C(=O)N[C@H](C(=O)N[C@@H](CC(N)=O)C(=O)N[C@H](C(=O)NCC(=O)N[C@@H](CO)C(=O)N[C@@H](CC(N)=O)C(=O)N[C@H](C(=O)N[C@@H](Cc1ccc(O)cc1)C(N)=O)[C@@H](C)O)C(C)C)[C@@H](C)O` [Example 23, N-alpha-[2-(2-{2-[4-(S)-Carboxy-4-(19-carboxynonadecanoylamino)butyrylamino]ethoxy}ethoxy)acetyl]-Arg-[Arg17]-pramlintide] ({C20 diacid-γGlu-AEEA}-RKCNTATCATQRLANFLRHSSNNFGPILPPTNVGSNTY-NH2; disulfide 3-8), in data set [1], the half-life is 53 h. Further, the EC50 in data set [2] stood at 0.1 nM.

Consider `CC[C@H](C)[C@H](NC(=O)[C@@H]1CCCN1C(=O)CNC(=O)[C@H](Cc1ccccc1)NC(=O)[C@H](CC(N)=O)NC(=O)[C@H](CC(N)=O)NC(=O)[C@H](CO)NC(=O)[C@H](CO)NC(=O)[C@H](Cc1c[nH]cn1)NC(=O)[C@H](Cc1c[nH]cn1)NC(=O)[C@H](CC(C)C)NC(=O)[C@H](Cc1ccccc1)NC(=O)[C@H](CC(N)=O)NC(=O)[C@H](C)NC(=O)[C@H](CC(C)C)NC(=O)[C@H](CCCNC(=N)N)NC(=O)[C@H](CCC(N)=O)NC(=O)[C@@H](NC(=O)[C@H](C)NC(=O)[C@@H]1CSSC[C@H](NC(=O)[C@H](Cc2c[nH]cn2)NC(=O)CC[C@H](NC(=O)CCCCCCCCCCCCCCCCCCC(=O)O)C(=O)O)C(=O)N[C@@H](CC(N)=O)C(=O)N[C@@H]([C@@H](C)O)C(=O)N[C@@H](C)C(=O)N[C@@H]([C@@H](C)O)C(=O)N1)[C@@H](C)O)C(=O)N[C@@H](CC(C)C)C(=O)N1CCC[C@H]1C(=O)N1CCC[C@H]1C(=O)N[C@H](C(=O)N[C@@H](CC(N)=O)C(=O)N[C@H](C(=O)NCC(=O)N[C@@H](CO)C(=O)N[C@@H](CC(N)=O)C(=O)N[C@H](C(=O)N[C@@H](Cc1ccc(O)cc1)C(N)=O)[C@@H](C)O)C(C)C)[C@@H](C)O` [Example 29, N-alpha-[(S)-4-Carboxy-4-(19-carboxynonadecanoylamino)butyryl]-[His1,His17]-pramlintide] ({C20 diacid-γGlu}-HCNTATCATQRLANFLHHSSNNFGPILPPTNVGSNTY-NH2; disulfide 2-7), for which, in data set [1], the half-life is 110 h. In addition, the EC50 in data set [2] was 0.07 nM.

Compound `CC[C@H](C)[C@H](NC(=O)[C@@H]1CCCN1C(=O)CNC(=O)[C@H](Cc1ccccc1)NC(=O)[C@H](CC(N)=O)NC(=O)[C@H](CC(N)=O)NC(=O)[C@H](CO)NC(=O)[C@H](CO)NC(=O)[C@H](Cc1c[nH]cn1)NC(=O)[C@H](Cc1c[nH]cn1)NC(=O)[C@H](CC(C)C)NC(=O)[C@H](Cc1ccccc1)NC(=O)[C@H](CC(N)=O)NC(=O)[C@H](C)NC(=O)[C@H](CC(C)C)NC(=O)[C@H](CCCNC(=N)N)NC(=O)[C@H](CCC(N)=O)NC(=O)[C@@H](NC(=O)[C@H](C)NC(=O)[C@@H]1CSSC[C@H](NC(=O)[C@H](Cc2c[nH]cn2)NC(=O)[C@H](Cc2c[nH]cn2)NC(=O)[C@H](Cc2c[nH]cn2)NC(=O)[C@H](CCC(=O)O)NC(=O)CC[C@H](NC(=O)CCCCCCCCCCCCCCCCCCC(=O)O)C(=O)O)C(=O)N[C@@H](CC(N)=O)C(=O)N[C@@H]([C@@H](C)O)C(=O)N[C@@H](C)C(=O)N[C@@H]([C@@H](C)O)C(=O)N1)[C@@H](C)O)C(=O)N[C@@H](CC(C)C)C(=O)N1CCC[C@H]1C(=O)N1CCC[C@H]1C(=O)N[C@H](C(=O)N[C@@H](CC(N)=O)C(=O)N[C@H](C(=O)NCC(=O)N[C@@H](CO)C(=O)N[C@@H](CC(N)=O)C(=O)N[C@H](C(=O)N[C@@H](Cc1ccc(O)cc1)C(N)=O)[C@@H](C)O)C(C)C)[C@@H](C)O` [Example 54, N-alpha-[(S)-4-Carboxy-4-(19-carboxynonadecanoylamino)butyryl]-Glu-His-His-[His1,His17]-pramlintide] ({C20 diacid-γGlu}-EHHHCNTATCATQRLANFLHHSSNNFGPILPPTNVGSNTY-NH2; disulfide 5-10) showed a half-life in data set [1] of 53 h. Also, the EC50 in data set [2] worked out at 0.1 nM.

The values above are taken from US8895504B2, “Amylin derivatives” (priority 2008, dated 2014).
